# Assay results: paper PMC9377007, “An Unexpected Deuterium-Induced Metabolic Switch in Doxophylline” (ACS Medicinal Chemistry Letters, 2022)
# What was measured:
# [1] = system: P. aeruginosa-induced lung injury; assay: Pseudomonas aeruginosa-induced lung injury model; format: in vivo; conditions: P. aeruginosa-treated mice; for MPO activity in lungs / apoptosis in lung tissue, TUNEL assay / collagen deposition (Masson's trichrome) / histological examination by H&E staining / immunohistochemistry of PAR / immunohistochemistry of nitrotyrosine / total BAL cellularity: 80 mg/kg os daily for 7 days; for lung edema, ratio of wet to dry weight of lung tissue: 80 mg/kg os daily, day 7, versus vehicle
# Protocol: Lung edema at day 7 was measured as a ratio of wet to dry weight of excised lung tissue (Figure 7c).
# Figure 7 Model of pulmonary fibrosis induced by P. aeruginosa. (a) Representative scheme of P. aeruginosa-induced lung injury model. (b) Total BAL cellularity of sham and Pseudomonas-treated mice (treated or not with 80 mg/kg doxophylline, d4-doxophylline, or d7-doxophylline). Results are reported as mean ± SEM of 10 mice for all groups. (c) Wet/dry lung weight ratio of sham and Pseudomonas-treated mice (treated or not with 80 mg/kg doxophylline, d4-doxophylline, or d7-doxophylline). Results are reported as mean ± SEM of 10 mice for all groups. (d) MPO activity in lungs of sham and Pseudomonas-treated mice (treated or not with 80 mg/kg doxophylline, d4-doxophylline, or d7-doxophylline). Results are reported as mean ± SEM of 10 mice for all groups. (e) Representative images of H&E staining of sham and Pseudomonas-treated mice (treated or not with 80 mg/doxophylline, d4-doxophylline, or d7-doxophylline). (f) Representative images of Masson’s trichrome staining of sham and Pseudomonas-treated mice (treated or not with 80 mg/doxophylline, d4-doxophylline and d7-doxophylline). p values: *, p < 0.05; **, p < 0.01; ***, p < 0.001; ****, p < 0.0001. […]
# experiments were performed following the new regulations of USA (Animal Welfare Assurance No A5594 - 01), Europe (EU Directive 2010/63) , Italy (D.Lgs 2014/26) and the ARRIVE guidelines.
# Tryptic soya agar beads laden with PA were produced as described. The mucoid PA strain NH57388A, was utilized. NH57388A-laden agar beads were prepared the day before inoculation, stored overnight at 4 °C, suspended in sterile PBS to deliver approximately 1 Å~ 106 CFU in 50 μ l per mouse. The inoculation dose […]
# Trans-tracheal instillation of beads.
# Mice were anaesthetized with inhaled isoflurane delivered initially in an anaesthetic box until unconscious, transferred to a surgical board and maintained under anesthesia with isoflurane via nose cone. The ventral cervical region was sterilized and 1-cm midline skin incision made just cranial to the thoracic inlet. The trachea was visualized by blunt dissection. Traction on the lower jaw was used to extend and straighten the trachea and a 22G intravenous catheter (BD Biosciences) used to cannulate the trachea. A 1-ml syringe, pre-filled with beads suspended in PBS, was attached to the cannuale. The cannulae and syringe were left in-situ for 5-seconds following depression of the plunger, followed by slow withdrawal. The animal was elevated head up to 45- […]
# intrapulmonary bead instillation. If evidence of respiratory distress (rapid or labored respiration/ gasping) occurred during the procedure anesthesia was rapidly reversed and oxygen alone administered via nose cone.
# The incision was closed with surgical staples. Buprenorphine analgesia was administered subcutaneously post-operatively. Animals were weighed and scored clinically daily. Experiments were terminated at 2-weeks post-inoculation via anesthetic overdose.
# Mice were randomly allocated into the following groups. PSEUDOMONAS group: mice were subjected to pseudomonas-induced lung injury (n = 10); PSEUDOMONAS group + doxophylline: Identical to the pseudomonas + vehicle group but were treated daily with doxophylline xo (80 mg/kg os) 1 h after pseudomonas instillation and continued daily for 7 days (n = 10); PSEUDOMONAS group + d4- doxophylline:
# Identical to the pseudomonas + vehicle group but were treated daily with doxophylline deuterated d4 (80 mg/kg os) 1 h after pseudomonas instillation and continued daily for 7 days ( n = 10); PSEUDOMONAS group + d7- doxophylline: Identical to the pseudomonas + vehicle group but were treated daily with doxophylline deuterated d7 (80 mg/kg os) 1 h after pseudomonas instillation and continued daily for 7 days (n = 10); SHAM group: mice will receive the vehicle administration daily for 7 days ([…]); SHAM + doxophylline group: […]
# [2] = Comparative pharmacokinetic study, single-dose administration in mice; format: in vivo; conditions: for AUC(0-t) / Cmax at 24 h / clearance at 24 h / half-life at 24 h / CL/F at 24 h: male, CD1, mouse, plasma, single dose; for decrease of the area under the curve (AUC) versus doxophylline: oral administration
# Protocol: A comparative pharmacokinetic study was then performed by evaluating the plasma concentration profiles of doxophylline and its deuterated analogues after intravenous and oral single-dose administration in mice and minipigs. […] Since the deuterium kinetic isotope effect is often affected by interspecies variability,[28] a PK study was also performed in minipigs. […] A total of 96 CD1 male mice, approximately 6 weeks old and with a body weight of approximately 30 g, were purchased from Envigo RMS srl, (San Pietro al Natisone, UD, Italy). Four males Göttingen minipigs approximately 4-5 months old and weighing 9-11 Kg were purchased from Ellegaard Göttingen Minipigs (Dalmose, Denmark). Protocol for drug administration and blood sampling. Mice. Blood samples were collected under light isoflurane anaesthesia from the sublingual vein at the following time points (n=3): pre-dose and 5, 15, 30 minutes, 1, 2, 4, 8 and 24 hours after i.v. dosing (20 mg/Kg, dose volume 5 mL/Kg) and pre-dose and 15, 30 minutes, 1, 2, 4, 8 and 24 hours after oral gavage dosing (80 mg/Kg, dose volume 5 mL/Kg). Each animal was sampled on each day at a maximum of two alternating time points. Samples were transferred into tubes containing K3EDTA as anticoagulant, centrifuged, and stored at -80 °C. Minipig. Blood samples were collected from the jugular vein at the following time points (n=4): pre-dose and 5, 15, 30 minutes, 1, 2, 4, 8 and 24 hours after i.v. dosing (5 mg/Kg, dose volume 1 mL/Kg) and pre-dose and 15, 30 minutes, 1, 2, 4, 8 and 24 hours after oral gavage dosing (20 mg/Kg, dose volume 4 mL/Kg). Samples were transferred into tubes containing K3EDTA as anticoagulant, centrifuged, and stored at -80 °C. Sample preparation for HPLC-MS analysis. A volume of 50 µL of caffeine solution (1 mg/L in water-methanol 1:1) were added to plasma sample aliquots (50 µL); after the addition of the precipitant solution (100 µL of 10% ice-cold trichloroacetic acid in water), samples were centrifuged at 13,000 rpm for ten minutes and the supernatant injected onto the HPLC system (see supporting information for chromatographic conditions). If the levels of analytes were over range, plasma samples were preventively diluted with blank plasma. Data analysis. Quantification of doxophylline and its deuterated analogues d4 and d7 as well as their main metabolites, 7- theophylline acetic acid (T-COOH), 7-hydroxyethyl theophylline (Eto) and theophylline, was performed by using the calibration curves obtained with the corresponding working standards of the analytes and using caffeine as internal standard. The pharmacokinetic parameters for doxophylline and its deuterated analogues were calculated by plotting the plasma concentration curves versus time obtained from the average values of three animals, using PK Solver 2.0.1 S7
"AUC(0-t) ([2]; intravenous, 20 mg/kg) [ng·h/mL]","Cmax at 24 h ([2]; intravenous, 20 mg/kg) [ng/mL]","clearance at 24 h ([2]; intravenous, 20 mg/kg) [mL/min/kg]","half-life at 24 h ([2]; intravenous, 20 mg/kg) [h]","AUC(0-t) ([2]; oral, 80 mg/kg) [ng·h/mL]","CL/F at 24 h ([2]; oral, 80 mg/kg) [mL/min/kg]","Cmax at 24 h ([2]; oral, 80 mg/kg) [ng/mL]","half-life at 24 h ([2]; oral, 80 mg/kg) [h]",decrease of the area under the curve (AUC) versus doxophylline [2] [%],SMILES,MPO activity in lungs [1],"apoptosis in lung tissue, TUNEL assay [1]",collagen deposition (Masson's trichrome) [1],histological examination by H&E staining [1],immunohistochemistry of PAR [1],immunohistochemistry of nitrotyrosine [1],total BAL cellularity [1],"lung edema, ratio of wet to dry weight of lung tissue [1]"
5410,12300,61.7,1.5,31400,41.7,16800,1.7,44,[2H]C1([2H])OC(Cn2cnc3c2c(=O)n(C)c(=O)n3C)OC1([2H])[2H] [d4-doxophylline],lesser nonsignificant effect,did not have any effect,lesser or no effect,reduction of the inflammatory interstitial infiltrate,lesser or no effect,lesser or no effect,increased total BAL cellularity,
4920,10700,68.3,1,33600,40,19200,2.1,40,[2H]C1([2H])OC([2H])(C([2H])([2H])n2cnc3c2c(=O)n(C)c(=O)n3C)OC1([2H])[2H] [d7-doxophylline],significantly reduced,reverted,effect,reduction of the inflammatory interstitial infiltrate,effect,effect,significantly reduced,considerably decreased
6730,15500,48.3,1.1,55900,23.3,18700,1.6,,Cn1c(=O)c2c(ncn2CC2OCCO2)n(C)c1=O [doxophylline],significantly reduced,reverted,effect,reduction of the inflammatory interstitial infiltrate,effect,effect,significantly reduced,considerably decreased
